What was measured:
[1] = target: T1, Heat shock protein HSP 90-beta (Homo sapiens, UniProt P08238)
Description: Inhibition of HSP90beta in human SKBR3 cells assessed as down regulation of HER2 expression levels after 24 hrs by FACS analysis

[2] = tested on: P388; test: Antitumor activity in mouse P388 cells xenografted in B6D2F1 mouse assessed as median day of death at 80 mg/kg/day, ip for 4 days (reference value: 10 days); type: functional; settings: route intraperitoneal
[3] = target: T1, Heat shock protein HSP 90-beta; remark: listed apart in the source
Description: Binding affinity to human Hsp90beta assessed as association constant after overnight incubation by fluorescence polarization assay

[4] = tested on: P388; test: Antitumor activity in mouse P388 cells xenografted in B6D2F1 mouse assessed as increase in mouse life span at 80 mg/kg/day, ip for 4 days relative to control; type: functional; settings: route intraperitoneal
[5] = target: T1, Heat shock protein HSP 90-beta; remark: listed apart in the source
Description: Inhibition of human Hsp90beta after overnight incubation by fluorescence polarization assay

T1 sequence (P08238 whole entry): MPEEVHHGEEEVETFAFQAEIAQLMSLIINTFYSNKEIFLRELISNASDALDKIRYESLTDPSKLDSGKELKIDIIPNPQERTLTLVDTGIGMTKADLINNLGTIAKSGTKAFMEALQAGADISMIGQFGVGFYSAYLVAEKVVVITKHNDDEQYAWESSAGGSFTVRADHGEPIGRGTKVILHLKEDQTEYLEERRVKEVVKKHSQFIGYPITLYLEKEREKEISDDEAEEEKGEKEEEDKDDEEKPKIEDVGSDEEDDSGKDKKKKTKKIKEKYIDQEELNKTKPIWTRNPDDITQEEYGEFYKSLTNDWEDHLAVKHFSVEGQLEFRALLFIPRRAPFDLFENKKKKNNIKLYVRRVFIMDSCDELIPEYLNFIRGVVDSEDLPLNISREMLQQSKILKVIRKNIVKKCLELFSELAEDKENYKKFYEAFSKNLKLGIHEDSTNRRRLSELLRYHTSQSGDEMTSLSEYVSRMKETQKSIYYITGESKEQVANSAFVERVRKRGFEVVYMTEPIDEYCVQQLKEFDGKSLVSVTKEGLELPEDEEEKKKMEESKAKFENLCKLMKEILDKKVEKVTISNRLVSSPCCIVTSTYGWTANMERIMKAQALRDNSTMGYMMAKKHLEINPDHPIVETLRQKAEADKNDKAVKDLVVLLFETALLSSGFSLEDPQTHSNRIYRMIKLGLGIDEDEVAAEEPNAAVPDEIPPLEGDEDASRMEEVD

Row | SMILES | IC50 [1] | also measured
1 | O=C(NC1c2ccccc2-c2c(-c3nc4ccncc4[nH]3)cccc21)c1ccncc1 (racemic) | 1.3 µM | 
2 | O=C1c2ccccc2C2=C(c3nc4ccncc4[nH]3)CCCN12 | > 50 µM | 
3 | C=CCNC1=C2C[C@@H](C)C[C@H](OC)[C@H](O)[C@@H](C)/C=C(\C)[C@H](OC(N)=O)[C@@H](OC)/C=C\C=C(/C)C(=O)NC(=CC1=O)C2=O [TANESPIMYCIN] |  | Time [2]: 13 days; Ka [3]: 1.2 ×10⁴ /M/s; Activity [4]: 30%
4 | O=C(NC1c2ccccc2-c2c(-c3nc4ccccc4[nH]3)cccc21)c1cccc2ncccc12 (racemic) | 1.3 µM | 
5 | Cc1onc(-c2ccc(O)cc2O)c1-c1ccccc1 |  | IC50 [5]: 7.6 µM

The next lines start with results.

Row | IC50 [1] | SMILES | also measured
6 | 50 µM | NC(=O)CCC(=O)NC1c2ccccc2-c2c(-c3nc4cnccc4[nH]3)cccc21 (racemic) | 
7 | 0.9 µM | Nc1cc(C(=O)NC2c3ccccc3-c3c(-c4nc5ccncc5[nH]4)cccc32)ccn1 (racemic) | 
8 | > 50 µM | O=C1c2ccccc2-c2c1cccc2-c1nc2cnccc2[nH]1 | 
